According to paper PMC12655637, “Design, Synthesis, and Mechanistic Study of Novel Ciprofloxacin/Thiazole Chalcone Hybrids as Potential Anticancer Agents” (Pharmaceuticals, 2025):
Where two headings read alike, the source gives them in different places.

Key:
Assay in all cases: NCI-60 screening, one-dose (10 µM) and five-dose, SRB
HL-60(TB) = assay type: cell-based, human; settings: Homo sapiens, HL-60, 10 μM; HL-60(TB), Leukemia; read-out: Growth percentage
SR = assay type: cell-based, human; settings: 10 μM, Leukemia
EKVX = assay type: cell-based, human; settings: Homo sapiens, 10 μM, Non-Small-Cell Lung Cancer, read-out: Growth percentage
HOP-62 = assay type: cell-based, human; settings: Homo sapiens, HOP-62, 10 μM; HOP-62, Non-Small-Cell Lung Cancer; read-out: Growth percentage
NCI-H23 = assay type: cell-based, human; settings: Homo sapiens; 10 μM; NCI-H23, Non-Small-Cell Lung Cancer; read-out: Growth percentage
NCI-H460 = assay type: cell-based, human; settings: Homo sapiens, NCI-H460, 10 μM; NCI-H460, Non-Small-Cell Lung Cancer; read-out: Growth percentage
NCI-H522 = assay type: cell-based, human; settings: Homo sapiens; 10 μM; NCI-H522, Non-Small-Cell Lung Cancer; read-out: Growth percentage
HCC-2998 = assay type: cell-based, human; settings: Homo sapiens; 10 μM; HCC-2998, Colon Cancer; read-out: Growth percentage
HT29 = assay type: cell-based, human; settings: Homo sapiens, HT-29; 10 μM; HT29, Colon Cancer; read-out: Growth percentage
KM12 = assay type: cell-based, human; settings: Homo sapiens, KM12, 10 μM; KM12, Colon Cancer; read-out: Growth percentage
SW-620 = assay type: cell-based, human; settings: Homo sapiens; 10 μM; SW-620, Colon Cancer; read-out: Growth percentage
SNB-19 = assay type: cell-based; settings: Homo sapiens; 10 μM; SNB-19, CNS Cancer; read-out: Growth percentage
LOX IMVI = assay type: cell-based, human; settings: Homo sapiens, 10 μM, Melanoma, read-out: Growth percentage
M14 = assay type: cell-based, human; settings: Homo sapiens; 10 μM; M14, Melanoma; read-out: Growth percentage
MDA-MB-435 = assay type: cell-based; settings: Homo sapiens, MDA-MB-435, read-out: Growth percentage, 10 μM; MDA-MB-435, Melanoma
SK-MEL-5 = assay type: cell-based, human; settings: Homo sapiens; 10 μM; SK-MEL-5, Melanoma; read-out: Growth percentage
OVCAR-3 = assay type: cell-based; settings: Homo sapiens; 10 μM; OVCAR-3, Ovarian Cancer; read-out: Growth percentage
OVCAR-5 = assay type: cell-based, human; settings: 10 μM; OVCAR-5, Ovarian Cancer
SK-OV-3 = assay type: cell-based, human; settings: Homo sapiens; 10 μM; SK-OV-3, Ovarian Cancer; read-out: Growth percentage
A498 = assay type: cell-based; settings: Homo sapiens, A498, 10 μM; A498, Renal Cancer; read-out: Growth percentage
ACHN = assay type: cell-based, human; settings: Homo sapiens, 10 μM, Renal Cancer, read-out: Growth percentage
CAKI-1 = assay type: cell-based; settings: Homo sapiens; 10 μM; CAKI-1, Renal Cancer; read-out: Growth percentage
SN12C = assay type: cell-based, human; settings: Homo sapiens, 10 μM, Renal Cancer, read-out: Growth percentage
TK-10 = assay type: cell-based, human; settings: Homo sapiens; 10 μM; TK-10, Renal Cancer; read-out: Growth percentage
PC-3 = assay type: cell-based, human; settings: Homo sapiens; 10 μM; PC-3, Prostate Cancer; read-out: Growth percentage
DU-145 = assay type: cell-based, human; settings: Homo sapiens; 10 μM; DU-145, Prostate Cancer; read-out: Growth percentage
MDA-MB231/ATCC = assay type: cell-based; settings: 10 μM; MDA-MB231/ATCC, Breast Cancer
HS 578T = assay type: cell-based, human; settings: Homo sapiens, 10 μM, Breast Cancer, read-out: Growth percentage
BT-549 = assay type: cell-based; settings: Homo sapiens
T-47D = assay type: cell-based, human; settings: 10 μM, Breast Cancer
MDA-MB-468 = assay type: cell-based, human; settings: Homo sapiens, MDA-MB-468, 10 μM; MDA-MB-468, Breast Cancer; read-out: Growth percentage
Text: Control cells Test cells FLD
available usually at NCI library.
An aliquot of frozen drug concentrate is […]

Q: `Cc1nc(SCC(=O)N2CCN(c3cc4c(cc3F)c(=O)c(C(=O)O)cn4C3CC3)CC2)sc1C(=O)/C=C/c1ccc(Br)cc1` [Compound 4f, (E)-7-(4-(2-((5-(3-(4-Bromophenyl)acryloyl)-4-methylthiazol-2-yl)thio)acetyl)piperazin-1-yl)-1-cyclopropyl-6-fluoro-4-oxo-1,4-dihydroquinoline-3-carboxylic Acid] was tested. Which activity at 10 µM (HL-60(TB)) did it give?
A: The activity at 10 µM was 83.3%.

Q: What about the Growth percentage (SR) of the same compound?
A: Its Growth percentage is 56.5%.

Q: And the activity at 10 µM (EKVX)?
A: Its activity at 10 µM is 107%.

Q: And the activity at 10 µM (HOP-62)?
A: The activity at 10 µM was 94.3%.

Q: What about the activity at 10 µM (NCI-H23) of the same compound?
A: The activity at 10 µM was 102%.

Q: And the activity at 10 µM (NCI-H460)?
A: Its activity at 10 µM is 107%.

Q: And the activity at 10 µM (NCI-H522)?
A: Its activity at 10 µM is 105%.

Q: And the activity at 10 µM (HCC-2998)?
A: Its activity at 10 µM is 115%.

Q: And the activity at 10 µM (HT29)?
A: Its activity at 10 µM is 117%.

Q: What about the activity at 10 µM (KM12) of the same compound?
A: Its activity at 10 µM is 108%.

Q: And the activity at 10 µM (SW-620)?
A: The activity at 10 µM was 116%.

Q: What about the activity at 10 µM (SNB-19) of the same compound?
A: The activity at 10 µM was 93.8%.

Q: And the activity at 10 µM (LOX IMVI)?
A: Its activity at 10 µM is 90.5%.

Q: What about the activity at 10 µM (M14) of the same compound?
A: Its activity at 10 µM is 108%.

Q: What about the activity at 10 µM (MDA-MB-435) of the same compound?
A: Its activity at 10 µM is 107%.

Q: What about the activity at 10 µM (SK-MEL-5) of the same compound?
A: The activity at 10 µM was 101%.

Q: And the activity at 10 µM (OVCAR-3)?
A: The activity at 10 µM was 170%.

Q: And the Growth percentage (OVCAR-5)?
A: The Growth percentage was 110.6%.

Q: What about the activity at 10 µM (SK-OV-3) of the same compound?
A: The activity at 10 µM was 110%.

Q: And the activity at 10 µM (A498)?
A: Its activity at 10 µM is 114%.

Q: And the activity at 10 µM (ACHN)?
A: The activity at 10 µM was 107%.

Q: What about the activity at 10 µM (CAKI-1) of the same compound?
A: The activity at 10 µM was 101%.

Q: What about the activity at 10 µM (SN12C) of the same compound?
A: Its activity at 10 µM is 101%.

Q: And the activity at 10 µM (TK-10)?
A: The activity at 10 µM was 108%.

Q: What about the activity at 10 µM (PC-3) of the same compound?
A: Its activity at 10 µM is 102%.

Q: And the activity at 10 µM (DU-145)?
A: The activity at 10 µM was 113%.

Q: What about the Growth percentage (MDA-MB231/ATCC) of the same compound?
A: The Growth percentage was 98.6%.

Q: What about the activity at 10 µM (HS 578T) of the same compound?
A: The activity at 10 µM was 99.6%.

Q: What about the activity at 10 µM (BT-549; BT-549, read-out: Growth percentage) of the same compound?
A: Its activity at 10 µM is 107%.

Q: And the Growth percentage (T-47D)?
A: Its Growth percentage is 89.3%.

Q: What about the activity at 10 µM (MDA-MB-468) of the same compound?
A: Its activity at 10 µM is 109%.

Q: `Cc1nc(SCC(=O)N2CCN(c3cc4c(cc3F)c(=O)c(C(=O)O)cn4C3CC3)CC2)sc1C(=O)/C=C/c1ccc([N+](=O)[O-])cc1` [Compound 4h, (E)-1-Cyclopropyl-6-fluoro-7-(4-(2-((4-methyl-5-(3-(4-nitrophenyl)acryloyl)thiazol-2-yl)thio)acetyl)piperazin-1-yl)-4-oxo-1,4-dihydroquinoline-3-carboxylic Acid] was tested. Which activity at 10 µM (HL-60(TB)) did it give?
A: Its activity at 10 µM is 80.9%.

Q: And the Growth percentage (SR)?
A: Its Growth percentage is 23.8%.

Q: What about the activity at 10 µM (EKVX) of the same compound?
A: The activity at 10 µM was 113%.

Q: What about the activity at 10 µM (HOP-62) of the same compound?
A: Its activity at 10 µM is 88.3%.

Q: And the activity at 10 µM (NCI-H23)?
A: The activity at 10 µM was 73.2%.

Q: And the activity at 10 µM (NCI-H460)?
A: Its activity at 10 µM is 99.4%.

Q: What about the activity at 10 µM (NCI-H522) of the same compound?
A: Its activity at 10 µM is 27.9%.

Q: And the activity at 10 µM (HCC-2998)?
A: The activity at 10 µM was 71.9%.

Q: What about the activity at 10 µM (HT29) of the same compound?
A: Its activity at 10 µM is 76.1%.

Q: What about the activity at 10 µM (KM12) of the same compound?
A: The activity at 10 µM was 54.4%.

Q: What about the activity at 10 µM (SW-620) of the same compound?
A: Its activity at 10 µM is 78.2%.

Q: What about the activity at 10 µM (SNB-19) of the same compound?
A: The activity at 10 µM was 72.2%.

Q: And the activity at 10 µM (LOX IMVI)?
A: Its activity at 10 µM is 28.3%.

Q: What about the activity at 10 µM (M14) of the same compound?
A: The activity at 10 µM was 70.5%.

Q: What about the activity at 10 µM (MDA-MB-435) of the same compound?
A: Its activity at 10 µM is 88.4%.

Q: And the activity at 10 µM (SK-MEL-5)?
A: The activity at 10 µM was 83.5%.

Q: What about the activity at 10 µM (OVCAR-3) of the same compound?
A: The activity at 10 µM was 49.4%.

Q: What about the Growth percentage (OVCAR-5) of the same compound?
A: The Growth percentage was 121.1%.

Q: And the activity at 10 µM (SK-OV-3)?
A: The activity at 10 µM was 119%.

Q: What about the activity at 10 µM (A498) of the same compound?
A: Its activity at 10 µM is 125%.

Q: And the activity at 10 µM (ACHN)?
A: Its activity at 10 µM is 96.7%.

Q: And the activity at 10 µM (CAKI-1)?
A: Its activity at 10 µM is 116%.

Q: What about the activity at 10 µM (SN12C) of the same compound?
A: Its activity at 10 µM is 78.3%.

Q: And the activity at 10 µM (TK-10)?
A: Its activity at 10 µM is 116%.

Q: And the activity at 10 µM (PC-3)?
A: Its activity at 10 µM is 85.9%.

Q: And the activity at 10 µM (DU-145)?
A: The activity at 10 µM was 85.3%.

Q: What about the Growth percentage (MDA-MB231/ATCC) of the same compound?
A: The Growth percentage was 94.5%.

Q: What about the activity at 10 µM (HS 578T) of the same compound?
A: The activity at 10 µM was 99.6%.

Q: And the activity at 10 µM (BT-549; 10 μM, BT-549, Breast Cancer, read-out: Growth percentage)?
A: The activity at 10 µM was 83.9%.

Q: And the Growth percentage (T-47D)?
A: Its Growth percentage is 64.1%.

Q: What about the activity at 10 µM (MDA-MB-468) of the same compound?
A: The activity at 10 µM was 85.2%.
